# According to BindingDB's records for doi:10.1016/j.bmcl.2011.01.107 (Institute of Chemical Physics, 2011):
# Target: NAD-dependent malic enzyme (Escherichia coli K-12, maeA) (UniProt P26616)
# Experiment: Inhibition of Escherichia coli K-12 recombinant NAD-dependent malic enzyme by Dixon plot
# Chain of NAD-dependent malic enzyme (Escherichia coli K-12, maeA) (P26616 whole entry, looked up): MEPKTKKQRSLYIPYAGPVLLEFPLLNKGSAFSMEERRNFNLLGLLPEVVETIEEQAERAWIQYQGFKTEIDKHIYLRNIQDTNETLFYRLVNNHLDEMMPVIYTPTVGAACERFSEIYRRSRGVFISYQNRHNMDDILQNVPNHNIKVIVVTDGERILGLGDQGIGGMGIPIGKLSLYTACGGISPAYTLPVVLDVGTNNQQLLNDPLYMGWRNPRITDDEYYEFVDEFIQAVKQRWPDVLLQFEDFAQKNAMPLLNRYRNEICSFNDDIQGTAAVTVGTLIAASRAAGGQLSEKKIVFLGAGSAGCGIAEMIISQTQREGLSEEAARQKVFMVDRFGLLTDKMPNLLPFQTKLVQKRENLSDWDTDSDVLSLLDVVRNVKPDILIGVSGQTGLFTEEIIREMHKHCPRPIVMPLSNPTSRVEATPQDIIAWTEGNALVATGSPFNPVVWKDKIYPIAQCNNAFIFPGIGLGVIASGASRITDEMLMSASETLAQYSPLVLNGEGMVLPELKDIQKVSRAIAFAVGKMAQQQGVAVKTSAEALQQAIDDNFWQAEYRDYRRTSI
structure (smiles),measurement,value
"COc1ccc(-c2cn([C@@H]3O[C@H](COP(=O)(O)O)[C@@H](O)[C@H]3O)nn2)cc1 [5-O-phosphate-1-N-(4'-(4''-methoxyhenyl))-[1',2',3']-triazol-beta-D-ribofuranoside]",Ki,57 µM
